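48-hour exposure; five concentrations; linearly interpolated endpoints. GI50 is the concentration that inhibits growth by half.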 Activity calls are given as the source filed them. Cut-off read from the data, not from the text of the source: active = GI50 up to about 1.1 µM and inactive = higher.
Tests used:
Assay in all cases: inhibition of tumour cell growth, NCI panel, 48 h
ACHN = tested on: ACHN
UACC-257 = tested on: UACC-257
SK-MEL-28 = tested on: SK-MEL-28
RXF 393 = tested on: RXF 393
OVCAR-8 = tested on: OVCAR-8
SF-539 = tested on: SF-539
NCI-H460 = tested on: NCI-H460
786-0 = tested on: 786-0
OVCAR-3 = tested on: OVCAR-3
SR = tested on: SR
A549 = tested on: A549
U-251 = tested on: U-251
RXF 631 = tested on: RXF 631
SN12C = tested on: SN12C
OVCAR-4 = tested on: OVCAR-4
KM-20L2 = tested on: KM-20L2
HT-29 = tested on: HT-29
HOP-62 = tested on: HOP-62
NCI-H226 = tested on: NCI-H226
MOLT-4 = tested on: MOLT-4
SNB-78 = tested on: SNB-78
DMS-273 = tested on: DMS-273
Malme-3M = tested on: Malme-3M
KM12 = tested on: KM12
SK-MEL-2 = tested on: SK-MEL-2
HOP-18 = tested on: HOP-18
COLO 205 = tested on: COLO 205
SF-268 = tested on: SF-268
UO-31 = tested on: UO-31
CAKI-1 = tested on: CAKI-1
NCI-H522 = tested on: NCI-H522
OVCAR-5 = tested on: OVCAR-5
HOP-92 = tested on: HOP-92
K562 = tested on: K562
HL-60 = tested on: HL-60
IGROV-1 = tested on: IGROV-1
LXFL 529 = tested on: LXFL 529
M14 = tested on: M14
SNB-75 = tested on: SNB-75
DMS-114 = tested on: DMS-114
SNB-19 = tested on: SNB-19
HCT-116 = tested on: HCT-116
EKVX = tested on: EKVX
DLD-1 = tested on: DLD-1
SW-620 = tested on: SW-620
A498 = tested on: A498
SK-MEL-5 = tested on: SK-MEL-5
M19-MEL = tested on: M19-MEL
SK-OV-3 = tested on: SK-OV-3
SF-295 = tested on: SF-295
NCI-H23 = tested on: NCI-H23
CCRF-CEM = tested on: CCRF-CEM
RPMI-8226 = tested on: RPMI-8226
XF498 = tested on: XF498
HCC 2998 = tested on: HCC 2998
TK-10 = tested on: TK-10
UACC-62 = tested on: UACC-62
HCT-15 = tested on: HCT-15
LOX IMVI = tested on: LOX IMVI

CCOc1ccc2c(c1)[n+]([O-])c(-c1ccc([N+](=O)[O-])cc1)c(N)[n+]2[O-]
GI50 (ACHN): > 100 µM (inactive)
GI50 (UACC-257): > 100 µM (inactive)
GI50 (SK-MEL-28): > 100 µM (inactive)
GI50 (RXF 393): > 100 µM (inactive)
GI50 (OVCAR-8): > 100 µM (inactive)
GI50 (SF-539): > 100 µM (inactive)
GI50 (NCI-H460): > 100 µM (inactive)
GI50 (786-0): > 100 µM (inactive)
GI50 (OVCAR-3): > 100 µM (inactive)
GI50 (SR): 67 µM (inactive)
GI50 (A549): > 100 µM (inactive)
GI50 (U-251): > 100 µM (inactive)
GI50 (RXF 631): > 100 µM (inactive)
GI50 (SN12C): > 100 µM (inactive)
GI50 (OVCAR-4): > 100 µM (inactive)
GI50 (KM-20L2): > 100 µM (inactive)
GI50 (HT-29): > 100 µM (inactive)
GI50 (HOP-62): > 100 µM (inactive)
GI50 (NCI-H226): > 100 µM (inactive)
GI50 (MOLT-4): 52.2 µM (inactive)
GI50 (SNB-78): > 100 µM (inactive)
GI50 (DMS-273): > 100 µM (inactive)
GI50 (Malme-3M): > 100 µM (inactive)
GI50 (KM12): > 100 µM (inactive)
GI50 (SK-MEL-2): > 100 µM (inactive)
GI50 (HOP-18): > 100 µM (inactive)
GI50 (COLO 205): > 100 µM (inactive)
GI50 (SF-268): > 100 µM (inactive)
GI50 (UO-31): 43.1 µM (inactive)
GI50 (CAKI-1): > 100 µM (inactive)
GI50 (NCI-H522): 56.4 µM (inactive)
GI50 (OVCAR-5): > 100 µM (inactive)
GI50 (HOP-92): > 100 µM (inactive)
GI50 (K562): > 100 µM (inactive)
GI50 (HL-60): 96.8 µM (inactive)
GI50 (IGROV-1): > 100 µM (inactive)
GI50 (LXFL 529): > 100 µM (inactive)
GI50 (M14): > 100 µM (inactive)
GI50 (SNB-75): 66.4 µM (inactive)
GI50 (DMS-114): 29.6 µM (inactive)
GI50 (SNB-19): > 100 µM (inactive)
GI50 (HCT-116): 62.2 µM (inactive)
GI50 (EKVX): > 100 µM (inactive)
GI50 (DLD-1): > 100 µM (inactive)
GI50 (SW-620): > 100 µM (inactive)
GI50 (A498): > 100 µM (inactive)
GI50 (SK-MEL-5): > 100 µM (inactive)
GI50 (M19-MEL): > 100 µM (inactive)
GI50 (SK-OV-3): > 100 µM (inactive)
GI50 (SF-295): > 100 µM (inactive)
GI50 (NCI-H23): > 100 µM (inactive)
GI50 (CCRF-CEM): 49.7 µM (inactive)

O=C(Nc1ccc(Cl)cc1)c1cc([N+](=O)[O-])ccc1O
GI50 (ACHN): 3.2 µM (inactive)
GI50 (UACC-257): 4.84 µM (inactive)
GI50 (SK-MEL-28): 3.33 µM (inactive)
GI50 (RXF 393): 1.77 µM (inactive)
GI50 (OVCAR-8): 4.33 µM (inactive)
GI50 (SF-539): 3.34 µM (inactive)
GI50 (NCI-H460): 3.01 µM (inactive)
GI50 (786-0): 3.76 µM (inactive)
GI50 (OVCAR-3): 2.67 µM (inactive)
GI50 (RPMI-8226): 2.33 µM (inactive)
GI50 (SR): 5.57 µM (inactive)
GI50 (A549): 4.62 µM (inactive)
GI50 (U-251): 3.27 µM (inactive)
GI50 (RXF 631): 2.9 µM (inactive)
GI50 (SN12C): 4.07 µM (inactive)
GI50 (OVCAR-4): 4.52 µM (inactive)
GI50 (KM-20L2): 4.49 µM (inactive)
GI50 (HT-29): 3.62 µM (inactive)
GI50 (HOP-62): 2.49 µM (inactive)
GI50 (NCI-H226): 3.55 µM (inactive)
GI50 (MOLT-4): 2.58 µM (inactive)
GI50 (DMS-273): 5.55 µM (inactive)
GI50 (XF498): 2.82 µM (inactive)
GI50 (Malme-3M): 2.13 µM (inactive)
GI50 (HCC 2998): 2.32 µM (inactive)
GI50 (KM12): 4.68 µM (inactive)
GI50 (SK-MEL-2): 2.61 µM (inactive)
GI50 (HOP-18): 1.58 µM (inactive)
GI50 (TK-10): 5.58 µM (inactive)
GI50 (UACC-62): 2.29 µM (inactive)
GI50 (COLO 205): 3.27 µM (inactive)
GI50 (SF-268): 4.97 µM (inactive)
GI50 (UO-31): 2.6 µM (inactive)
GI50 (CAKI-1): 4.02 µM (inactive)
GI50 (NCI-H522): 2.09 µM (inactive)
GI50 (OVCAR-5): 4.53 µM (inactive)
GI50 (HCT-15): 6.79 µM
GI50 (K562): 2.67 µM (inactive)
GI50 (HL-60): 2.19 µM (inactive)
GI50 (IGROV-1): 3.27 µM (inactive)
GI50 (LOX IMVI): 3.29 µM (inactive)
GI50 (LXFL 529): 2.9 µM (inactive)
GI50 (M14): 3.65 µM (inactive)
GI50 (SNB-75): 3.84 µM (inactive)
GI50 (DMS-114): 2.35 µM (inactive)
GI50 (SNB-19): 3.77 µM (inactive)
GI50 (HCT-116): 3.37 µM (inactive)
GI50 (EKVX): 3.85 µM (inactive)
GI50 (DLD-1): 3.71 µM (inactive)
GI50 (SW-620): 5.07 µM (inactive)
GI50 (A498): 2.47 µM (inactive)
GI50 (SK-MEL-5): 2.8 µM (inactive)
GI50 (M19-MEL): 3.52 µM (inactive)
GI50 (SK-OV-3): 4.69 µM (inactive)
GI50 (SF-295): 4.95 µM (inactive)
GI50 (NCI-H23): 2.64 µM (inactive)
GI50 (CCRF-CEM): 2.64 µM (inactive)

Reference: ChEMBL document CHEMBL1201862, “PubChem BioAssay data set” (2004)
